Patent publication US7417050B2 (priority 2002, dated 2008)

Target: α7 nAChR subtype (Rattus norvegicus, UniProt Q05941)
Format: binding
Details: read-out: KD of radioligand

α7 nAChR subtype, sequence (Q05941 23-502 limits assumed): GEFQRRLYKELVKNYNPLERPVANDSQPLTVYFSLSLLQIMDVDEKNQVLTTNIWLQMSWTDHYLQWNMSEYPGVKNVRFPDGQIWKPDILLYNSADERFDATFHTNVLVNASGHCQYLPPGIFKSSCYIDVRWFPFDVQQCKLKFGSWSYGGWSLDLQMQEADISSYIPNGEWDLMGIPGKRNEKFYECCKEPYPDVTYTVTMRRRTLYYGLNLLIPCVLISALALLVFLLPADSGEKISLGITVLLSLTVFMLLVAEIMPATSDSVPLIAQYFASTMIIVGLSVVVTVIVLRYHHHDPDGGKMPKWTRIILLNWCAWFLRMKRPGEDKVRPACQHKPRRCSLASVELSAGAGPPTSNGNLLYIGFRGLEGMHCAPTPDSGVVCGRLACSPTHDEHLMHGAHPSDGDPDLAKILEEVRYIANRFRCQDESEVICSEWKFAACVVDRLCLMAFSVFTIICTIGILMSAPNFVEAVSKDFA

[^125I]-α-Bungarotoxin [[^125I]-α-BTX]
Kd: 1.67 nM
